# Assay results: patent publication US9868736B2, “Deubiquitinase inhibitors and methods for use of the same” (THE REGENTS OF THE UNIVERSITY OF MICHIGAN, priority 2013, dated 2018)
# Like-named read-outs stand apart in the source and are kept apart here.
# Legend:
# [1] = tested on: vemurafenib sensitive and resistant A375 melanoma cells; assay: in vitro anti-tumor efficacy in A375 melanoma cells; format: cell-based; conditions: A375 cells, Usp5 knockdown
# Source text: Similar results were obtained in A375R Usp5 KD cells treated with a MEK inhibitor.
# [2] = molecular target: T1, catalytic domain of Usp9x (Usp9xCD) (Homo sapiens, UniProt Q93008); assay: Usp9xCD Ub-AMC enzyme assay; format: biochemical; conditions: 300 nM Usp9xCD, 30 min at 37° C. with inhibitor, 1.5 μM Ub-AMC
# T1 construct: DNA corresponding to amino acids 1553-1960 of human Usp9x; His6-Smt3 (SUMO) fusion tag, ULP1-cleavable (N, cleaved yes); made in house; host or cells: E. coli
# T1 sequence (Q93008 1553-1960): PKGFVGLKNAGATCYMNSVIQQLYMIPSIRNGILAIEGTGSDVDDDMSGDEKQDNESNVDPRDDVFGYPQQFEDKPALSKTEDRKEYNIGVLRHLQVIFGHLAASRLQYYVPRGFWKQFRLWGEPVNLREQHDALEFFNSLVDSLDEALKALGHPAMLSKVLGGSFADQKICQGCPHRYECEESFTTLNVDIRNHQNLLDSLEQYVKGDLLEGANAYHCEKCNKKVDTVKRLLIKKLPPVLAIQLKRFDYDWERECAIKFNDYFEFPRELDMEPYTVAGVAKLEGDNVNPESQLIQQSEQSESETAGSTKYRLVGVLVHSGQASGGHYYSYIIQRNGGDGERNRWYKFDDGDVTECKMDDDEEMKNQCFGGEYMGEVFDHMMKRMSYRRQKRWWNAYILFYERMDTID
# Experimental: A series of chemical modifications were initiated to increase our structure activity relationship (SAR) analysis of inhibitors. […] The DNA was cloned into a ULP1-protease cleavable N-terminal His6-Smt3-fusion tag expression vector, derived from pET-28. Protein expression was induced at OD600 2.0, in TB media with Kanamycin overnight at 16° C. Cells were harvested and flash frozen before use. […] Protein was concentrated to roughly 20-40 mg/ml before aliquots were flash-frozen. All steps were performed in the presence of reducing agents, either BME, DTT, or TCEP.
# Purified recombinant enzyme in buffer containing 2 mM DTT was buffer exchanged into 25 mM Tris-HCl, 50 mM NaCl and 1 mg/ml BSA using a spin column. […] IC50 values were estimated by integrating the slope of each reaction using GraphPad 6.
# Two hundred and ten (210) novel chemical structures were screened for Usp9xCD inhibitory activity using this assay. […] Fluorescent scans were used to assess Usp9xCD inhibitory activity in this enzyme assay for all compounds of interest. Each assay was performed in duplicate and the linear region of each reaction curve was used to calculate IC50 values for Usp9xCD inhibition which are tabulated in Table 1.
# Mcl-1, PARP = assay: Mcl-1 level and PARP cleavage in treated tumor cells; format: cell-based; conditions: Z138 lymphoma cells, 1.25, 2.5 and 5 μM, 4 hours
# aqueous solubility = format: physicochemical
# [3] = background statement; cited from earlier work
# Usp9x = Usp9x (Homo sapiens, UniProt Q93008); assay: DUB activity (HA-Ub vinyl-sulfone labelling) in lysates of treated intact cells; format: cell-based; parameters: endogenous in cells; host or cells: Z138 lymphoma, MM1.S/MM1.ST myeloma, primary PCL cells, A375 and vemurafenib-resistant A375 melanoma; conditions: Z138 lymphoma cells, 1.25, 2.5 and 5 μM, 4 hours
# Experimental: In brief, control and treated cells were lysed by sonication in DUB assay buffer [50 mM Tris-HCl (pH 7.5), 5 mM MgCl2, 250 mM sucrose, 1 mM PMSF, 1× Roche proteinase inhibitory cocktail] and 20 μg of protein from the supernatant fraction (after a 14,000×g spin) were incubated with 200 nM HA-Ub vinyl-sulfone (Boston Biochem) in a final volume of 20 μl. After 90 min at 37° C., reactions were stopped with the addition of 5×-sample buffer. DUB activity was detected by SDS-PAGE resolution of the protein followed by nitrocellulose membrane transfer and immunoblotting with anti-HA.
# The time required for G9-mediated Usp9x inhibition in intact multiple myeloma (MM1.S) cells and primary tumor cells from a patient with plasma cell leukemia (PCL) was investigated. MM1.ST (FIG. 1, left) or PCL (FIG. 1, right) cells were treated with 5 μM of compound for the time indicated before Usp9x activity was assessed as described above.
# Chain of Usp9x (Q93008 whole entry): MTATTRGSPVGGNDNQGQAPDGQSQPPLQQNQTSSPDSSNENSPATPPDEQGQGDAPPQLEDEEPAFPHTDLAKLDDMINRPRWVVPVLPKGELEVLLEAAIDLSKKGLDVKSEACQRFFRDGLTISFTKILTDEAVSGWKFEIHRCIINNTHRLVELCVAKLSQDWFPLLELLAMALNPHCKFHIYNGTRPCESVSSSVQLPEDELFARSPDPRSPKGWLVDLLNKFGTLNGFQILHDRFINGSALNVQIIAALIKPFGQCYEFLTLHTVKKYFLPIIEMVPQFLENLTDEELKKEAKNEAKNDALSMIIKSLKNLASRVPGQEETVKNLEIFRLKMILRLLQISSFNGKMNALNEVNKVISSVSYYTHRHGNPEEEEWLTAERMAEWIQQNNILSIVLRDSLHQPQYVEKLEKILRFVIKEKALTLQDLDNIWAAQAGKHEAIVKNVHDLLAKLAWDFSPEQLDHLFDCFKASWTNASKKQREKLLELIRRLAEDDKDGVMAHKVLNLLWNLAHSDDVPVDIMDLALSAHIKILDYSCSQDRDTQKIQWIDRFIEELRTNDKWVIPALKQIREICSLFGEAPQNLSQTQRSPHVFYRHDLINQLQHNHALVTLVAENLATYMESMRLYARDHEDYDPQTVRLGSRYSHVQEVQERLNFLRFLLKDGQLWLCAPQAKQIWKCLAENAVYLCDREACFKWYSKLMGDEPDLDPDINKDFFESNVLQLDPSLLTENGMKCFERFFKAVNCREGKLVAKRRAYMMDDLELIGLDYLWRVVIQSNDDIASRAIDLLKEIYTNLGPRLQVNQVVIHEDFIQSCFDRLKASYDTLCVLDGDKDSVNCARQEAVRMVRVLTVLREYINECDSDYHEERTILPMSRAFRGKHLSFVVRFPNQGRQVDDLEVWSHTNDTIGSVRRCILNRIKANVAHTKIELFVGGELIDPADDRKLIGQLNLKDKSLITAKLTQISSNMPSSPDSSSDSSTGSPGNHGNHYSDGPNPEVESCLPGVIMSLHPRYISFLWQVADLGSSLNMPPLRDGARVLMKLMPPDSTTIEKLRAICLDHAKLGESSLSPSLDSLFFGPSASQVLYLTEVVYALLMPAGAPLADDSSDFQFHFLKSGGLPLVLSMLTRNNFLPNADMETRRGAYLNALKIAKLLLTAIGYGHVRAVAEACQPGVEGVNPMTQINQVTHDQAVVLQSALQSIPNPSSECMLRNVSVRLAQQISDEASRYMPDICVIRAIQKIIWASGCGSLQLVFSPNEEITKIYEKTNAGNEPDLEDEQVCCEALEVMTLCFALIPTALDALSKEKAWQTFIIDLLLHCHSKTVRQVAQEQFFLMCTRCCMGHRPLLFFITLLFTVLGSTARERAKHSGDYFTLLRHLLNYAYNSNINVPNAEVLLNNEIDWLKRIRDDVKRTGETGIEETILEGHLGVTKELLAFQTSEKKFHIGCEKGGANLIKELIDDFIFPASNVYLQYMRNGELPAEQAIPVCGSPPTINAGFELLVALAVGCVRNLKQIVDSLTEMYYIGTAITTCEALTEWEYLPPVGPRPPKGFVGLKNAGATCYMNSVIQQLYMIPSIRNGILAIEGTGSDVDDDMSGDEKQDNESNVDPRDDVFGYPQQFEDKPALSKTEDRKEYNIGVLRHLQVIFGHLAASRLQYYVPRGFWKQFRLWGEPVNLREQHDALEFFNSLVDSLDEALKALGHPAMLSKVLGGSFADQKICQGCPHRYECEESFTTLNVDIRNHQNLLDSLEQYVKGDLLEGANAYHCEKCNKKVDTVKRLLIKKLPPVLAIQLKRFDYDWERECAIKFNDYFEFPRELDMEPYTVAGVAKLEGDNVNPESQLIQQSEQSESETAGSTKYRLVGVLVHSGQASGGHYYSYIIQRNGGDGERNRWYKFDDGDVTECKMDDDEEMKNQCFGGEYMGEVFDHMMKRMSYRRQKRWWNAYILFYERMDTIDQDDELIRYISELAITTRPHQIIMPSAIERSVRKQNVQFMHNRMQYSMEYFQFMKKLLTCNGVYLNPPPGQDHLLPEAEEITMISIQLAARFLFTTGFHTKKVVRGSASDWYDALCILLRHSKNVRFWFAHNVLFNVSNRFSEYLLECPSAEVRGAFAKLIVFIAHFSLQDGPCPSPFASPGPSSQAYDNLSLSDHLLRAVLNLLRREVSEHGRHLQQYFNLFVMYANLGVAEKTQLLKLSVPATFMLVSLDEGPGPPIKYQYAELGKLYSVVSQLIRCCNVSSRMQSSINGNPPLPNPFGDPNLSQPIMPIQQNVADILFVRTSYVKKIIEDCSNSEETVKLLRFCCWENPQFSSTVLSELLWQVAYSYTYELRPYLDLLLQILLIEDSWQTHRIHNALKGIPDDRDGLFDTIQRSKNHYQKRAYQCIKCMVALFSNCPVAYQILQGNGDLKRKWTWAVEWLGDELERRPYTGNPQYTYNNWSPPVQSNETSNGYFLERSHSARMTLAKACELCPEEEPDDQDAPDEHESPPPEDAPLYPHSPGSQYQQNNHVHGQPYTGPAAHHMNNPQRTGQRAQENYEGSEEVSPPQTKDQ
Structure (SMILES),reduction of the vemurafenib IC50 concentration by Usp5 KD [1],IC50 [2],"level of Mcl-1 (Mcl-1, PARP)",solubility (aqueous solubility),solubility [3],Usp9x activity in intact cells (Usp9x)
"CCCS(=O)(=O)Nc1ccc(F)c(C(=O)c2c[nH]c3ncc(-c4ccc(Cl)cc4)cc23)c1F [vemurafenib, reference compound]",about 2 fold,–,–,–,–,–
CCCC(NC(=O)/C(C#N)=C/c1nc(Cl)ccc1Cl)c1ccc(OCCN2CCOCC2)cc1 (stereo not shown) [drawing 26],–,1.6 µM,–,–,–,–
"CCC[C@H](NC(=O)/C(C#N)=C/c1cccc(Br)n1)c1ccccc1 [WP1130, reference compound]",–,4.8 µM,reduce the level of a downstream target of Usp9x,2.6 µM,poor solubility,able to inhibit Usp9x activity in intact cells
